# Values quoted from earlier work in patent publication US12458027B2, “Glyphosate composition for dicamba tank mixtures with improved volatility” (Monsanto Technology LLC, priority 2013, dated 2025).
# Conditions: 25° C.
compound,measurement,value
"O=C(O)CNCP(=O)(O)O [Glyphosate acid, N-(phosphonomethyl)glycine]",solubility in water,about 1.16 wt. %
